In brackets after ≈: the same amount, converted by molar mass. Where two headings read alike, the source gives them in different places.
Assays:
[1] = MIC by CLSI broth microdilution, Example 1 Method 1, gram-negative aerobic organisms; type: cell-based; conditions: at least one strain of every organism listed; salt of gepotidacin (such as mesylate salt)
Experimental: Antimicrobial activity was determined by broth microdilution using the CLSI recommended procedure.

S. saprophyticus [2] = assay: MIC by CLSI agar dilution, Example 1 Method 2; type: cell-based, Staphylococcus saprophyticus
Experimental: Antimicrobial activity was determined in a second study by […] using the CLSI recommended procedure in serial two-fold dilutions and the minimum inhibitory concentration (MIC) was determined as the lowest concentration of the compound that inhibited visible growth.
This study tested gepotidacin by CLSI agar dilution against 51 isolates of S. saprophyticus collected between 2005-2018.
Amikacin, ceftazidime, colistin, fosfomycin, levofloxacin, meropenem, nitrofurantoin and trimethoprim-sulfamethoxazole were included as comparators. MICs for and comparators were determined by agar dilution according CLSI methods.
MICs were determined according to CLSI agar dilution guidelines.

[3] = test system: Proteus hauseri and Proteus peneri; assay: MIC by CLSI agar dilution, Example 1 Method 2; type: cell-based; conditions: at least one strain of every organism listed
Experimental: Antimicrobial activity was determined in a second study by […] using the CLSI recommended procedure in serial two-fold dilutions and the minimum inhibitory concentration (MIC) was determined as the lowest concentration of the compound that inhibited visible growth. Amikacin, ceftazidime, colistin, fosfomycin, levofloxacin, meropenem, nitrofurantoin and trimethoprim-sulfamethoxazole were included as comparators. MICs for and comparators were determined by agar dilution according CLSI methods. In addition, gepotidacin and all of the aforementioned comparators identified in this method were evaluated against gram-negative aerobic organisms selected from Proteus hauseri and Proteus […]. Gepotidacin was tested in at least one exemplified salt.

S. saprophyticus [4] = assay: Phase IIa baseline uropathogen susceptibility testing (CLSI broth microdilution); type: cell-based; conditions: Staphylococcus saprophyticus; Participant 8; read-out: GEP MIC
Experimental: (§1) This phase IIa single center study evaluated the safety, tolerability, pharmacokinetics, and efficacy of oral gepotidacin 1500 mg BID for 5 days in female subjects with acute cystitis. Clean catch mid-stream urine specimens were obtained for quantitative culture by standard methods. Urine samples were taken from all participants pre-treatment (baseline) and at all post-baseline visits. All urine samples were sent to a central laboratory (PPD Global Clinical Laboratories, Highland Heights, Ky., USA) for Gram stain, quantitative culture, pathogen identification and susceptibility testing. See FIG. 1 for participant disposition and study outline.
(§2) Susceptibility testing by CLSI broth microdilution and gradient diffusion (fosfomycin only) was conducted (CLSI, 2015, Methods for dilution antimicrobial susceptibility tests for bacteria that grow aerobically; approved standard-tenth edition; and CLSI, 2018. Performance Standards for Antimicrobial Susceptibility Testing; Twenty-seventh Informational Supplement M100-S28). Inclusion in the microbiological intent-to-treat population (micro-ITT), required growth of a qualifying baseline uropathogen (≥10^5 CFU/mL). See FIG. 2 for the baseline algorithm.

qualifying uropathogens = assay: as above; type: cell-based; conditions: 8 qualifying baseline uropathogens
Experimental: as §1, §2

E. coli = assay: MIC of the isolates used in the murine models; type: cell-based, Escherichia coli
Morganella morganii = assay: MIC, Example 5 Method 1; type: cell-based; conditions: at least one isolate tested
S. epidermidis = assay: MIC by CLSI broth microdilution, Example 5 second study (skin and soft tissue isolates); type: cell-based; conditions: Staphylococcus epidermidis; 13 isolates, 2013-2014
From the text: (§3) A second study tested gepotidacin by CLSI broth microdilution against bacterial isolates collected from patients with acute bacterial skin and soft tissue infections between 2013-2014. Amoxicillin/clavulanic acid, linezolid, fusidic acid, ceftriaxone, ceftaroline, vancomycin, penicillin, quinupristin/dalfopristin, erythromycin, clindamycin, meropenem, tetracycline, chloramphenicol, flucloxacillin, telavancin, daptomycin, trimethoprim/sulfamethoxazole, gentamicin, levofloxacin, tigecycline and cefuroxime were included as comparators. MICs were determined by broth microdilution according to CLSI methods.

S. anginosus = assay: MIC by CLSI broth microdilution, Example 5 second study; type: cell-based; conditions: Streptococcus anginosus; 10 isolates, 2013-2014
From the text: as §3

viridans streptococci = assay: as above; type: cell-based; conditions: 19 isolates, 2013-2014
From the text: as §3

Bilophila wadsworthia = assay: MIC by CLSI agar dilution, Example 6 Method 1; type: cell-based; conditions: 26 isolates, read-out: Gepotidacin MIC90
Experimental: (§4) Antimicrobial activity was determined by agar dilution using the Clinical and Laboratory Standards Institute (CLSI) recommended procedure.
(§5) The compounds were tested in serial two-fold dilutions and the minimum inhibitory concentration (MIC) was determined as the lowest concentration of the compound that inhibited visible growth. Gepotidacin was tested against 333 gram-negative anaerobic and 203 gram-positive anaerobic isolates collected from clinical samples in North America and Europe from 2000 to 2017; the majority collected from 2013 to 2016.
(§6) Ceftriaxone, clindamycin, imipenem, metronidazole, moxifloxacin and piperacillin/tazobactam were included as comparators.

[5] = test system: all the gram-negative anaerobe organisms combined; assay: MIC by CLSI agar dilution, Example 6 Method 1; type: cell-based; conditions: all gram-negative anaerobes combined; read-out: overall MIC90
Experimental: as §4, §5, §6

[6] = test system: gram-positive anaerobe organisms combined; assay: MIC by CLSI agar dilution, Example 6 Method 1; type: cell-based; conditions: gram-positive anaerobes combined; read-out: overall MIC90
Experimental: as §4, §5, §6

In the case of `O=c1ccc2ncc(=O)n3c2n1C[C@H]3CN1CCC(NCc2cc3c(cn2)OCCC3)CC1` [gepotidacin, (2R)-2-({4-[(3,4-dihydro-2H-pyrano[2,3-c]pyridin-6-ylmethyl)amino]-1-piperidinyl}methyl)-1,2-dihydro-3H,8H-2a,5,8a-triazaacenaphthylene-3,8-dione], the MIC [1] is reported as ≤ 8 µg/mL, the “% of isolates with MIC ≤0.125 mg/L” value (S. saprophyticus [2]; 51 isolates) is reported as 100% and the MIC90 (S. saprophyticus [2]; Staphylococcus saprophyticus, 51 isolates collected 2005-2018, read-out: MIC90) is reported as 0.125 µg/mL (≈ 0.279 µM). The MIC (S. saprophyticus [2]; Staphylococcus saprophyticus, 51 isolates, read-out: MICs for all S. saprophyticus) was ≤ 0.125 µg/mL, the MIC50 (S. saprophyticus [2]; Staphylococcus saprophyticus, n = 51) was ≤ 0.06 µg/mL and the MIC90 (S. saprophyticus [2]; n = 51) was 0.125 µg/mL (≈ 0.279 µM). The “Number of Isolates at Gepotidacin MIC ≤0.25 mg/L” value (S. saprophyticus [2]; n = 51) was 51, the MIC [3] was ≤ 8 µg/mL and the MIC (S. saprophyticus [4]) was 0.06 µg/mL (≈ 0.134 µM). For the same molecule, the “Gepotidacin MICs ranged” value (qualifying uropathogens) was 0.06 to 4 µg/mL, the “range of MICs” value (E. coli; 5 isolates: ALL, 997577, ATCC25922, IR5, NCTC13441) was 1 to 4 µg/mL and the Gepotidacin MIC (E. coli; Strain 997577) was 2 µg/mL. The Gepotidacin MIC (E. coli; Strain ALL) was 4 µg/mL, the Gepotidacin MIC (E. coli; Strain ATCC25922) was 1 µg/mL and the Gepotidacin MIC (E. coli; Strain IR5) was 4 µg/mL. For the same molecule, the Gepotidacin MIC (E. coli; Strain NCTC13441) was 2 µg/mL, the MIC (Morganella morganii) was 4 µg/mL (≈ 8.92 µM) and the MIC90 (S. epidermidis) was 0.25 µg/mL (≈ 0.557 µM). For the same molecule, the MIC90 (S. anginosus) was 1 µg/mL (≈ 2.23 µM), the MIC90 (viridans streptococci) was 0.5 µg/mL (≈ 1.11 µM) and the MIC90 (Bilophila wadsworthia) was 0.5 µg/mL (≈ 1.11 µM). The MIC90 [5] was 4 µg/mL and the MIC90 [6] was 2 µg/mL.
